Results taken from patent US12448399B2, “Cereblon-based KRAS degrading PROTACs and uses related thereto” (Arvinas Operations, Inc., priority 2023, dated 2025).

Molecular target: T1, KRas-G12D (Homo sapiens, UniProt P01116, G12D)
T1 construct: insert the HiBiT tag onto the N-terminus of one or more of the endogenous KRas alleles; host or cells: AsPC-1 HiBiT-KRasG12D knock-in clone (one tagged allele, two untagged KRasG12D alleles)
Experiment: HiBiT Degradation Assay (G12D), AsPC-1 HiBiT-KRasG12D cells, 24 hr
Assay type: cell-based
Details: for DC50: AsPC-1 cells
Protocol: AsPC-1 (CRL-1682) cells were purchased from ATCC and are homozygous for the G12D mutation in KRas. AsPC-1 cells were cultured in GIBCO RPMI-1640 (ThermoFisher Scientific, catalog #61870-036, with Glutamax, no HEPES, no Na Pyruvate) supplemented with 10% FBS (ThermoFisher Scientific, catalog #2060357) and 1× Penicillin-Streptomycin (ThermoFisher Scientific, catalog #15140122, 10000 U/ml, 100×). For degradation assays, 384 well plates were used. Alamar blue was purchased from ThermoFisher Scientific (A50101) and used according to manufacturer instructions. The Nano-Glo® HiBiT Lytic Detection System and Nano-Glo® HiBiT Blotting System were purchased from Promega (#N3050 and #N2410) and used according to manufacturer instructions.
To create the AsPC-1 HiBiT-KRasG12D cell line, CRISPR-Cas9 was used to insert the HiBiT tag onto the N-terminus of one or more of the endogenous KRas alleles. See Schwinn, M. K. et al. (2018) CRISPR-mediated tagging of endogenous proteins with a luminescent peptide, ACS Chem. Biol. 13(2), 467-474. After knock-in of the tag, individual clones were isolated by single cell dilution and screened for HiBiT insertion by PCR. A clone was identified that contained the desired HiBiT-KRasG12D sequence at one allele while the remaining two KRasG12D alleles were untagged. This clone was used in further studies.
AsPC-1 HiBiT-KRasG12D cells were plated at 9000 or 15,000 cells/well in a 384 well plate (Corning #3770). Compounds of the present disclosure and positive controls were diluted in the appropriate cell media and applied to the plated cells resulting in a final concentration titration of 10 μM to […] in 0.5% DMSO. Gambogic acid was used as a positive control for cytotoxicity and titrated from 10 μM to 78 nM. All assays were performed in triplicate. Cells were treated with compounds for 24 hr at 37° C. in an incubator containing 5% CO2. Following treatment, alamar blue was used to determine if any compounds led to a loss in cell viability after 24 hr. The 10× alamar blue reagent was added to a final concentration of 1× as recommended by the manufacturer and cells were returned to the incubator for 4 hr. Plates were then allowed to equilibrate to RT and fluorescence was measured using a Perkin-Elmer EnVision. After completion of the fluorescence read, the liquid from each well was removed and the cells were washed with PBS. The Nano-Glo® HiBiT detection reagent was prepared according to the manufacturer's instructions and added to each well after the PBS wash was removed. Following incubation at room temperature for 45 min, the luminescence was read using the ultra-sensitive luminescence aperture on the Envision instrument.
Fluorescence values from the alamar blue treatment were normalized to the DMSO-only control for each compound titration. HiBiT luminescence was normalized to the DMSO-only control and the fractional HiBiT signal was plotted versus the log of the PROTAC concentration and fit to a 4-parameter dose-response model to obtain the concentration of the compound that leads to half maximal degradation (DC50) as well as the maximum degradation observed (Dmax, conventionally expressed as a percentage of control).

T1 sequence (P01116 1-188 isoform P01116-2 G12D): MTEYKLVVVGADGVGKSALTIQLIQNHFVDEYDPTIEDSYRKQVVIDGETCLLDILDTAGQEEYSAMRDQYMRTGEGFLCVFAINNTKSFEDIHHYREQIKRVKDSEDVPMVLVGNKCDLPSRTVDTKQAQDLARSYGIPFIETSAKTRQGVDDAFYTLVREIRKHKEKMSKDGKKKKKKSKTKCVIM

Row | DC50 | Structure (SMILES) | Dmax (ASPC1, AsPC-1 cells, maximum degradation observed)
1 | 100 to 5250 nM | CCc1cccc2cc(O)cc(-c3ncc4c(N5CC6CCC(C5)N6)nc(OC[C@]56CCCN5[C@@H](COC(=O)N5CCN(c7ccc8c(c7)CN(C7CCC(=O)N(C)C7=O)C8=O)CC5)CC6)nc4c3F)c12 (stereo partly drawn) [Compound 53, [(3R,8R)-8-[[4-(3,8-diazabicyclo[3.2.1]octan-3-yl)-7-(8-ethyl-3-hydroxy-1-naphthyl)-8-fluoro-pyrido[4,3-d]pyrimidin-2-yl]oxymethyl]-1,2,3,5,6,7-hexahydropyrrolizin-3-yl]methyl4-[2-(1-methyl-2,6-dioxo-3-piperidyl)-1-oxo-isoindolin-5-yl]piperazine-1-carboxylate] | 
2 | < 5100 nM | CCc1cccc2cc(O)cc(-c3ncc4c(N5CC6CCC(C5)N6)nc(OCCN5CCC(CC6CCN(CC7CCN(c8cccc9c8CN(C8CCC(=O)NC8=O)C9=O)CC7)CC6)CC5)nc4c3F)c12 (centres unmarked) [Compound 55, 3-[4-[4-[[4-[[1-[2-[4-(3,8-diazabicyclo[3.2.1]octan-3-yl)-7-(8-ethyl-3-hydroxy-1-naphthyl)-8-fluoro-pyrido[4,3-d]pyrimidin-2-yl]oxyethyl]-4-piperidyl]methyl]-1-piperidyl]methyl]-1-piperidyl]-1-oxo-isoindolin-2-yl]piperidine-2,6-dione] | 
3 | 250 to 1000 nM | CCc1cccc2cc(O)cc(-c3ncc4c(N5CC6CCC(C5)N6)nc(OCCN5CCC(CC6CCN(c7cccc8c7CN(C7CCC(=O)NC7=O)C8=O)CC6)CC5)nc4c3F)c12 (centres unmarked) [Compound 56, 3-[4-[4-[[1-[2-[4-(3,8-diazabicyclo[3.2.1]octan-3-yl)-7-(8-ethyl-3-hydroxy-1-naphthyl)-8-fluoro-pyrido[4,3-d]pyrimidin-2-yl]oxyethyl]-4-piperidyl]methyl]-1-piperidyl]-1-oxo-isoindolin-2-yl]piperidine-2,6-dione] | 
4 | 100 to 5250 nM | CCc1cccc2cc(O)cc(-c3ncc4c(N5CC6CCC(C5)N6)nc(OCCN5CCC(CC6CCN(CC7CCN(c8cccc9c8C(=O)N(C8CCC(=O)NC8=O)C9=O)CC7)CC6)CC5)nc4c3F)c12 (centres unmarked) [Compound 57, 4-[4-[[4-[[1-[2-[4-(3,8-diazabicyclo[3.2.1]octan-3-yl)-7-(8-ethyl-3-hydroxy-1-naphthyl)-8-fluoro-pyrido[4,3-d]pyrimidin-2-yl]oxyethyl]-4-piperidyl]methyl]-1-piperidyl]methyl]-1-piperidyl]-2-(2,6-dioxo-3-piperidyl)isoindoline-1,3-dione] | 
5 | < 5100 nM | CCc1cccc2cc(O)cc(-c3ncc4c(N5CC6CCC(C5)N6)nc(OC[C@@]56CCCN5[C@H](COC(=O)N5CCN(c7ccc8c(c7)CN(C7CCC(=O)NC7=O)C8=O)CC5)CC6)nc4c3F)c12 (stereo partly drawn) [Compound 58, [(3S,8S)-8-[[4-(3,8-diazabicyclo[3.2.1]octan-3-yl)-7-(8-ethyl-3-hydroxy-1-naphthyl)-8-fluoro-pyrido[4,3-d]pyrimidin-2-yl]oxymethyl]-1,2,3,5,6,7-hexahydropyrrolizin-3-yl]methyl 4-[2-(2,6-dioxo-3-piperidyl)-1-oxo-isoindolin-5-yl]piperazine-1-carboxylate] | 
6 | < 5100 nM | CCc1cccc2cc(O)cc(-c3ncc4c(N5CC6CCC(C5)N6)nc(OC[C@]56CCCN5[C@@H](COC(=O)N5CCN(c7ccc8c(c7)CN(C7CCC(=O)NC7=O)C8=O)CC5)CC6)nc4c3F)c12 (stereo partly drawn) [Compound 59, [(3R,8R)-8-[[4-(3,8-diazabicyclo[3.2.1]octan-3-yl)-7-(8-ethyl-3-hydroxy-1-naphthyl)-8-fluoro-pyrido[4,3-d]pyrimidin-2-yl]oxymethyl]-1,2,3,5,6,7-hexahydropyrrolizin-3-yl]methyl 4-[2-(2,6-dioxo-3-piperidyl)-1-oxo-isoindolin-5-yl]piperazine-1-carboxylate] | 
7 | 100 to 5250 nM | CCc1cccc2cc(O)cc(-c3ncc4c(N5CC6CCC(C5)N6)nc(OC[C@@]56CCCN5[C@H](COC(=O)N5CCN(c7cccc8c7CN(C7CCC(=O)NC7=O)C8=O)CC5)CC6)nc4c3F)c12 (stereo partly drawn) [Compound 60, [(3S,8S)-8-[[4-(3,8-diazabicyclo[3.2.1]octan-3-yl)-7-(8-ethyl-3-hydroxy-1-naphthyl)-8-fluoro-pyrido[4,3-d]pyrimidin-2-yl]oxymethyl]-1,2,3,5,6,7-hexahydropyrrolizin-3-yl]methyl 4-[2-(2,6-dioxo-3-piperidyl)-1-oxo-isoindolin-4-yl]piperazine-1-carboxylate] | 
8 | 250 to 1000 nM | CCc1cccc2cc(O)cc(-c3ncc4c(N5CC6CCC(C5)N6)nc(OC[C@]56CCCN5[C@@H](COC(=O)N5CCN(c7cccc8c7CN(C7CCC(=O)NC7=O)C8=O)CC5)CC6)nc4c3F)c12 (stereo partly drawn) [Compound 61, [(3R,8R)-8-[[4-(3,8-diazabicyclo[3.2.1]octan-3-yl)-7-(8-ethyl-3-hydroxy-1-naphthyl)-8-fluoro-pyrido[4,3-d]pyrimidin-2-yl]oxymethyl]-1,2,3,5,6,7-hexahydropyrrolizin-3-yl]methyl 4-[2-(2,6-dioxo-3-piperidyl)-1-oxo-isoindolin-4-yl]piperazine-1-carboxylate] | 
9 | < 5100 nM | CCc1cccc2cc(O)cc(-c3ncc4c(N5CC6CCC(C5)N6)nc(OC[C@@]56CCCN5[C@H](COC(=O)N5CCN(c7ccc8c(c7)C(=O)N(C7CCC(=O)NC7=O)C8=O)CC5)CC6)nc4c3F)c12 (stereo partly drawn) [Compound 62, [(3S,8S)-8-[[4-(3,8-diazabicyclo[3.2.1]octan-3-yl)-7-(8-ethyl-3-hydroxy-1-naphthyl)-8-fluoro-pyrido[4,3-d]pyrimidin-2-yl]oxymethyl]-1,2,3,5,6,7-hexahydropyrrolizin-3-yl]methyl4-[2-(2,6-dioxo-3-piperidyl)-1,3-dioxo-isoindolin-5-yl]piperazine-1-carboxylate] | 
10 | 250 to 1000 nM | CCc1cccc2cc(O)cc(-c3ncc4c(N5CC6CCC(C5)N6)nc(OC[C@]56CCCN5[C@@H](COC(=O)N5CCN(c7ccc8c(c7)C(=O)N(C7CCC(=O)NC7=O)C8=O)CC5)CC6)nc4c3F)c12 (stereo partly drawn) [Compound 63, [(3R,8R)-8-[[4-(3,8-diazabicyclo[3.2.1]octan-3-yl)-7-(8-ethyl-3-hydroxy-1-naphthyl)-8-fluoro-pyrido[4,3-d]pyrimidin-2-yl]oxymethyl]-1,2,3,5,6,7-hexahydropyrrolizin-3-yl]methyl4-[2-(2,6-dioxo-3-piperidyl)-1,3-dioxo-isoindolin-5-yl]piperazine-1-carboxylate] | 
11 | 100 to 5250 nM | CCc1cccc2cc(O)cc(-c3ncc4c(N5CC6CCC(C5)N6)nc(OC[C@@]56CCCN5[C@H](COC(=O)N5CCN(c7cccc8c7C(=O)N(C7CCC(=O)NC7=O)C8=O)CC5)CC6)nc4c3F)c12 (stereo partly drawn) [Compound 64, [(3S,8S)-8-[[4-(3,8-diazabicyclo[3.2.1]octan-3-yl)-7-(8-ethyl-3-hydroxy-1-naphthyl)-8-fluoro-pyrido[4,3-d]pyrimidin-2-yl]oxymethyl]-1,2,3,5,6,7-hexahydropyrrolizin-3-yl]methyl 4-[2-(2,6-dioxo-3-piperidyl)-1,3-dioxo-isoindolin-4-yl]piperazine-1-carboxylate] | 
12 | 250 to 1000 nM | CCc1cccc2cc(O)cc(-c3ncc4c(N5CC6CCC(C5)N6)nc(OC[C@]56CCCN5[C@@H](COC(=O)N5CCN(c7cccc8c7C(=O)N(C7CCC(=O)NC7=O)C8=O)CC5)CC6)nc4c3F)c12 (stereo partly drawn) [Compound 65, [(3R,8R)-8-[[4-(3,8-diazabicyclo[3.2.1]octan-3-yl)-7-(8-ethyl-3-hydroxy-1-naphthyl)-8-fluoro-pyrido[4,3-d]pyrimidin-2-yl]oxymethyl]-1,2,3,5,6,7-hexahydropyrrolizin-3-yl]methyl 4-[2-(2,6-dioxo-3-piperidyl)-1,3-dioxo-isoindolin-4-yl]piperazine-1-carboxylate] | 

Row | Structure (SMILES) | DC50 | Dmax (ASPC1, AsPC-1 cells, maximum degradation observed)
13 | CCc1cccc2cc(O)cc(-c3ncc4c(N5CC6CCC(C5)N6)nc(OC[C@]56CCCN5[C@@H](COC(=O)N5CCN(c7cccc8c7CN(C7CCC(=O)N(C)C7=O)C8=O)CC5)CC6)nc4c3F)c12 (stereo partly drawn) [Compound 54, [(3R,8R)-8-[[4-(3,8-diazabicyclo[3.2.1]octan-3-yl)-7-(8-ethyl-3-hydroxy-1-naphthyl)-8-fluoro-pyrido[4,3-d]pyrimidin-2-yl]oxymethyl]-1,2,3,5,6,7-hexahydropyrrolizin-3-yl]methyl4-[2-(1-methyl-2,6-dioxo-3-piperidyl)-1-oxo-isoindolin-4-yl]piperazine-1-carboxylate] | 250 to 1000 nM | ≤ 25%
